Data reported in patent publication US20120142705A1, “ISATIN AND OXINDOLE COMPOUNDS” (priority 2010, published 2012).

Each compound was assayed against T1, Recombinant human liver GK1 (GST-GK) (Homo sapiens, UniProt P35557) (assay: In vitro glucokinase activity, G6PDH-coupled spectrophotometric assay). Settings: 5 mM D-glucose, 30° C., pH 7.1.
T1 construct: made in house; host or cells: E. coli
T1 sequence (P35557 1-466 isoform P35557-2): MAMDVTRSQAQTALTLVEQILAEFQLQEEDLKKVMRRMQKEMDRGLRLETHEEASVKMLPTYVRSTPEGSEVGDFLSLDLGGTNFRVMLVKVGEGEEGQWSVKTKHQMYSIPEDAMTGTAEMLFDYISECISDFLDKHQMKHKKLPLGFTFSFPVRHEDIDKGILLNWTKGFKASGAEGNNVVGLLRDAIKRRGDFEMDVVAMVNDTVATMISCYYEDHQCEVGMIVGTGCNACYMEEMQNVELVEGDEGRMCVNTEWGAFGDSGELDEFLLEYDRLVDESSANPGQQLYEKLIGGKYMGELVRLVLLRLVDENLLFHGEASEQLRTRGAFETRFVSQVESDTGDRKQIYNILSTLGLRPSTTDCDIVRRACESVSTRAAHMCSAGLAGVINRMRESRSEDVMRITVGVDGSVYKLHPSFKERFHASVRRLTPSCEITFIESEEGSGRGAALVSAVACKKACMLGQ
Type: biochemical
Method: Glucokinase In Vitro Assay Protocol: Glucokinase (GK) was assayed by coupling the production of glucose-6-phosphate to the generation of NADH with glucose-6-phosphate dehydrogenase (G6PDH, 0.75-1 kunits/mg; Boehringer Mannheim, Indianapolis, Ind.) from Leuconostoc mesenteroides as the coupling enzyme (Scheme 2).
Recombinant human liver GK1 was expressed in E. coli as a glutathione S-transferase fusion protein (GST-GK) [Liang et al, 1995] and was purified by chromatography over a glutathione-Sepharose 4B affinity column using the procedure provided by the manufacturer (Amersham Pharmacia Biotech, Piscataway, N.J.).
The assay was conducted at 30° C. in a flat bottom 96-well tissue culture plate from Costar (Cambridge, Mass.) with a final incubation volume of 120 μL. The incubation reaction contained the following: 25 mM Hepes buffer (pH 7.1), 25 mM KCl, 5 mM D-glucose, 1 mM ATP, 1.8 mM NAD, 2 mM MgCl2, 1 μM sorbitol-6-phosphate, 1 mM dithiothreitol, test drug or 10% dimethylsulfoxide, ˜7 units/ml G6PDH, and GK (see below). All organic reagents were >98% pure and were from Boehringer Mannheim with the exceptions of D-glucose and Hepes which were from Sigma Chemical Co, St Louis, Mo. Test compounds were dissolved in dimethylsulfoxide and were added to the incubation reaction minus GST-GK in a volume of 12 μL to yield a final dimethylsulfoxide concentration of 10%. This mix was pre-incubated in the temperature controlled chamber of a SPECTRAmax 250 microplate spectrophotometer (Molecular Devices Corporation, Sunnyvale, Calif.) for 10 minutes to allow temperature equilibrium and then the reaction was started by the addition of 20 μL GST-GK.
After addition of enzyme, the increase in optical density (OD) at 340 nm was monitored spectrophotometrically to determine the rate of change (OD340 per min). The GK activity (OD340/min) in control wells (10% dimethylsulfoxide minus GK activators) was compared with the activity in wells containing test GK activators, and the concentration of activator that produced a 50% increase in the activity of GK, i.e., the SC1.5, was calculated.

In order of rising “SC1.5 (concentration of activator that produced a 50% increase in the activity of GK)” value:
1. O=C(Nc1ccccn1)C(CC1CCCC1)N1C(=O)Cc2ccc(Cl)cc21 (stereo not shown) [Example 122, 2-(6-Chloro-2-oxo-2,3-dihydro-indol-1-yl)-3-cyclopentyl-N-pyridin-2-yl-propionamide]  0.1 µM
2. O=C1C(=O)N(C(CC2CCCC2)C(=O)Nc2ccccn2)c2cc(Cl)ccc21 (stereo not shown) [Example 118, 2-(6-chloro-2,3-dioxo-2,3-dihydro-indol-1-yl)-3-cyclopentyl-N-pyridin-2-yl-propionamide]  0.23 µM
3. O=C1C(=O)N(C(CC2CCCC2)C(=O)Nc2ccccn2)c2ccc(OC(F)(F)F)cc21 (stereo not shown) [Example 30, 3-Cyclopentyl-2-(2,3-dioxo-5-trifluoromethoxy-2,3-dihydro-indol-1-yl)-N-pyridin-2-yl-propionamide]  0.33 µM
4. Cc1ccc2c(c1)N(C(CC1CCCC1)C(=O)Nc1nccs1)C(=O)C2 (stereo not shown) [Example 129, 3-Cyclopentyl-2-(6-methyl-2-oxo-2,3-dihydro-indol-1-yl)-N-thiazol-2-yl-propionamide]  0.53 µM
5. Cc1ccc2c(c1)N(C(CC1CCCC1)C(=O)Nc1cnccn1)C(=O)C2 (stereo not shown) [Example 130, 3-Cyclopentyl-2-(6-methyl-2-oxo-2,3-dihydro-indol-1-yl)-N-pyrazin-2-yl-propionamide]  0.61 µM
6. O=C1C(=O)N(C(CC2CCCC2)C(=O)Nc2ccccn2)c2ccc(Cl)cc21 (stereo not shown) [Example 94, 2-(5-Chloro-2,3-dioxo-2,3-dihydro-indol-1-yl)-3-cyclopentyl-N-pyridin-2-yl-propionamide]  1.04 µM
7. O=C1C(=O)N(C(CC2CCCC2)C(=O)Nc2cnccn2)c2ccc(OC(F)(F)F)cc21 (stereo not shown) [Example 29, 3-Cyclopentyl-2-(2,3-dioxo-5-trifluoromethoxy-2,3-dihydro-indol-1-yl)-N-pyrazin-2-yl-propionamide]  1.5 µM
8. CC(C)CC(C(=O)Nc1ccccn1)N1C(=O)Cc2cc(Br)ccc21 (stereo not shown) [Example 74, 2-(5-Bromo-2-oxo-2,3-dihydro-indol-1-yl)-4-methyl-pentanoic acid pyridin-2-ylamide]  3.24 µM
9. CC(C)CC(C(=O)Nc1nccs1)N1C(=O)C(=O)c2ccc(Cl)cc21 (stereo not shown) [Example 109, 2-(6-Chloro-2,3-dioxo-2,3-dihydro-indol-1-yl)-4-methyl-pentanoic acid thiazol-2-ylamide]  3.29 µM
10. O=C1C(=O)N(C(CC2CCCC2)C(=O)Nc2cnccn2)c2ccc(Cl)cc21 (stereo not shown) [Example 96, 2-(5-Chloro-2,3-dioxo-2,3-dihydro-indol-1-yl)-3-cyclopentyl-N-pyrazin-2-yl-propionamide]  4.04 µM
11. O=C1C(=O)N(C(CC2CCCC2)C(=O)Nc2cnccn2)c2ccc(Br)cc21 (stereo not shown) [Example 60, 2-(5-Bromo-2,3-dioxo-2,3-dihydro-indol-1-yl)-3-cyclopentyl-N-pyrazin-2-yl-propionamide]  5.48 µM
12. CC(C)CC(C(=O)Nc1nccs1)N1C(=O)C(=O)c2cc(OC(F)(F)F)ccc21 (stereo not shown) [Example 40, 2-(2,3-Dioxo-5-trifluoromethoxy-2,3-dihydro-indol-1-yl)-4-methyl-pentanoic acid thiazol-2-ylamide]  5.97 µM
13. Cn1ccc(NC(=O)C(CC2CCCC2)N2C(=O)C(=O)c3c(Cl)cccc32)n1 (stereo not shown) [Example 15, 2-(4-Chloro-2,3-dioxo-2,3-dihydro-indol-1-yl)-3-cyclopentyl-N-(1-methyl-1H-pyrazol-3-yl)-propionamide]  6.5 µM
14. O=C1C(=O)N(C(CC2CCCC2)C(=O)Nc2cnccn2)c2cccc(Cl)c21 (stereo not shown) [Example 13, 2-(4-Chloro-2,3-dioxo-2,3-dihydro-indol-1-yl)-3-cyclopentyl-N-pyrazin-2-yl-propionamide]  6.94 µM
15. Cn1ccc(NC(=O)C(CC2CCCC2)N2C(=O)Cc3c(Cl)cccc32)n1 (stereo not shown) [Example 23, 2-(4-Chloro-2-oxo-2,3-dihydro-indol-1-yl)-3-cyclopentyl-N-(1-methyl-1H-pyrazol-3-yl)-propionamide]  7.4 µM
16. CC(C)CC(C(=O)Nc1nccs1)N1C(=O)C(=O)c2c(Cl)cccc21 (stereo not shown) [Example 20, 2-(4-Chloro-2,3-dioxo-2,3-dihydro-indol-1-yl)-4-methyl-pentanoic acid thiazol-2-ylamide]  7.72 µM
17. CC(C)CC(C(=O)Nc1ccn(C)n1)N1C(=O)Cc2cc(OC(F)(F)F)ccc21 (stereo not shown) [Example 42, 4-Methyl-2-(2-oxo-5-trifluoromethoxy-2,3-dihydro-indol-1-yl)-pentanoic acid (1-methyl-1H-pyrazol-3-yl)-amide]  8.12 µM
18. CC(C)CC(C(=O)Nc1nccs1)N1C(=O)Cc2ccccc21 (stereo not shown) [Example 11, 4-Methyl-2-(2-oxo-2,3-dihydro-indol-1-yl)-pentanoic acid thiazol-2-ylamide]  16.22 µM
19. Cn1ccc(NC(=O)C(CC2CCCC2)N2C(=O)Cc3ccccc32)n1 (stereo not shown) [Example 7, 3-Cyclopentyl-N-(1-methyl-1H-pyrazol-3-yl)-2-(2-oxo-2,3-dihydro-indol-1-yl)-propionamide]  17.55 µM
20. O=C1C(=O)N(C(CC2CCCC2)C(=O)Nc2cnccn2)c2ccccc21 (stereo not shown) [Example 1, 3-Cyclopentyl-2-(2,3-dioxo-2,3-dihydro-indol-1-yl)-N-pyrazin-2-yl-propionamide]  18.64 µM
21. CC(C)CC(C(=O)Nc1cnccn1)N1C(=O)C(=O)c2cc(OC(F)(F)F)ccc21 (stereo not shown) [Example 37, 2-(2,3-Dioxo-5-trifluoromethoxy-2,3-dihydro-indol-1-yl)-4-methyl-pentanoic acid pyrazin-2-ylamide]  19.72 µM
22. CC(C)CC(C(=O)Nc1cnccn1)N1C(=O)Cc2cc(Cl)ccc21 (stereo not shown) [Example 106, 2-(5-Chloro-2-oxo-2,3-dihydro-indol-1-yl)-4-methyl-pentanoic acid pyrazin-2-ylamide]  20.67 µM
23. Cc1ccc2c(c1)CC(=O)N2C(CC(C)C)C(=O)Nc1nccs1 (stereo not shown) [Example 88, 4-Methyl-2-(5-methyl-2-oxo-2,3-dihydro-indol-1-yl)-pentanoic acid thiazol-2-ylamide]  22.88 µM

Same assay, conditions: @ 30 uM; 5 mM D-glucose, 30° C.

In order of rising fold induction at 30 µM:
1. Cc1ccc2c(c1)C(=O)C(=O)N2C(CC(C)C)C(=O)Nc1ccccn1 (stereo not shown) [Example 85, 4-Methyl-2-(5-methyl-2,3-dioxo-2,3-dihydro-indol-1-yl)-pentanoic acid pyridin-2-ylamide]  1.16
2. CC(C)CC(C(=O)Nc1ccn(C)n1)N1C(=O)C(=O)c2cc(Cl)ccc21 (stereo not shown) [Example 104, 2-(5-Chloro-2,3-dioxo-2,3-dihydro-indol-1-yl)-4-methyl-pentanoic acid (1-methyl-1H-pyrazol-3-yl)-amide]  1.21
3. COc1ccc2c(c1)CC(=O)N2C(CC(C)C)C(=O)Nc1cnccn1 (stereo not shown) [Example 58, 2-(5-Methoxy-2-oxo-2,3-dihydro-indol-1-yl)-4-methyl-pentanoic acid pyrazin-2-ylamide]  1.31
4. CC(C)CC(C(=O)Nc1cnccn1)N1C(=O)C(=O)c2c(Cl)cccc21 (stereo not shown) [Example 17, 2-(4-Chloro-2,3-dioxo-2,3-dihydro-indol-1-yl)-4-methyl-pentanoic acid pyrazin-2-ylamide]  1.39
5. CC(C)CC(C(=O)Nc1ccn(C)n1)N1C(=O)Cc2c(Cl)cccc21 (stereo not shown) [Example 27, 2-(4-Chloro-2-oxo-2,3-dihydro-indol-1-yl)-4-methyl-pentanoic acid (1-methyl-1H-pyrazol-3-yl)-amide]  1.39
